# PMC2749987 (European journal of pharmacology, 2009)
# Like-named read-outs stand apart in the source and are kept apart here.
# Columns and labels:
# human 5-HT2A receptor [1] = biological target: T1, human 5-HT2A receptor (Homo sapiens, UniProt P28223); type: binding; conditions: for nH (Hill slope), 5-HT2A binding: competition binding
# human 5-HT2B receptor [2] = biological target: T2, human 5-HT2B receptor (Homo sapiens, UniProt P41595); type: binding; conditions: for nH (Hill slope), 5-HT2B binding: competition binding
# human 5-HT2C receptor [3] = biological target: T3, human 5-HT2C receptor (Homo sapiens, UniProt P28335); type: binding; conditions: for nH (Hill slope), 5-HT2C binding: competition binding
# T3 sequence (P28335 33-458): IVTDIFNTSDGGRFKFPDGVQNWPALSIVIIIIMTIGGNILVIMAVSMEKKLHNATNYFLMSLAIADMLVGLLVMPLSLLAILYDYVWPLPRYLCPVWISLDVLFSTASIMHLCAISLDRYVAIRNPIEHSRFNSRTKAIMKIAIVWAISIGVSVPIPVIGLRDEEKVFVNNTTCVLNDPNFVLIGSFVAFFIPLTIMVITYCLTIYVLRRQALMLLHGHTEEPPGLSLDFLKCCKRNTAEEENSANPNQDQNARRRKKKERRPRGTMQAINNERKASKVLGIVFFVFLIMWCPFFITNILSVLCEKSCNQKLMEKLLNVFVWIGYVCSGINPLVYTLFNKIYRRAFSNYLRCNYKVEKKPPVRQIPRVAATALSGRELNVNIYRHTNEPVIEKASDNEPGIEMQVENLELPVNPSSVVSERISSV
# human 5-HT2C receptor [4] = biological target: T3, human 5-HT2C receptor; type: cell-based
# human 5-HT2A receptor [5] = biological target: T1, human 5-HT2A receptor; type: cell-based
# human 5-HT2B receptor [6] = biological target: T2, human 5-HT2B receptor
# mice = conditions: intraperitoneal single-dose, ref Rowland et al., 2008, cited from earlier work
# 5-HT2A = conditions: ref Knight et al., 2004; cited from earlier work
# 5-HT2C receptors = conditions: ref Jensen, 2006, Smith et al., Thomsen et al., 2008; cited from earlier work
# 5-HT2A receptors [7] = conditions: read-out: affinity at 5-HT2A receptors Ki, ref Jensen, 2006, Smith et al., Thomsen et al., 2008; cited from earlier work
# 5-HT2B receptors [8] = conditions: read-out: affinity at 5-HT2B receptors Ki, ref Jensen, 2006, Smith et al., Thomsen et al., 2008; cited from earlier work
# 5-HT2A receptors [9] = conditions: ref Jensen, 2006, Smith et al., Thomsen et al., 2008; cited from earlier work
# 5-HT2B receptors [10] = conditions: ref Jensen, 2006, Smith et al., Thomsen et al., 2008; cited from earlier work
# rats = conditions: oral single-dose, ref Thomsen et al., 2008, cited from earlier work
# [11] = read-out: 5-HT2A Ki ± SEM, competition vs 1.0 nM [3H]-ketanserin
# [12] = read-out: 5-HT2B Ki ± SEM, competition vs 5.0 nM [3H]-mesulergine
# T1 sequence (P28223 whole entry): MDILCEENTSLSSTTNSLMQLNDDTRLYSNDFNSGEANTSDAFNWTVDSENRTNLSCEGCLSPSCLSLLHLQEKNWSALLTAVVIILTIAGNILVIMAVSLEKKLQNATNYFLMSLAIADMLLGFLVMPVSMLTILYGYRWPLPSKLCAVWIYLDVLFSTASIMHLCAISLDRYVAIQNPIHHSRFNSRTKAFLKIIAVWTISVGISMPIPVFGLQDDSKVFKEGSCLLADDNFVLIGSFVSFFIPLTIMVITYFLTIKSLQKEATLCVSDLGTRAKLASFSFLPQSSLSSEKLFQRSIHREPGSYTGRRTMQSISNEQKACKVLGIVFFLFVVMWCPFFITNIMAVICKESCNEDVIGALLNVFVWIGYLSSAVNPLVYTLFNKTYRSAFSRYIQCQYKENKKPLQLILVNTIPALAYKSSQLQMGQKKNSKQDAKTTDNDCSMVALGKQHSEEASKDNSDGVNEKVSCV
# T2 sequence (P41595 whole entry): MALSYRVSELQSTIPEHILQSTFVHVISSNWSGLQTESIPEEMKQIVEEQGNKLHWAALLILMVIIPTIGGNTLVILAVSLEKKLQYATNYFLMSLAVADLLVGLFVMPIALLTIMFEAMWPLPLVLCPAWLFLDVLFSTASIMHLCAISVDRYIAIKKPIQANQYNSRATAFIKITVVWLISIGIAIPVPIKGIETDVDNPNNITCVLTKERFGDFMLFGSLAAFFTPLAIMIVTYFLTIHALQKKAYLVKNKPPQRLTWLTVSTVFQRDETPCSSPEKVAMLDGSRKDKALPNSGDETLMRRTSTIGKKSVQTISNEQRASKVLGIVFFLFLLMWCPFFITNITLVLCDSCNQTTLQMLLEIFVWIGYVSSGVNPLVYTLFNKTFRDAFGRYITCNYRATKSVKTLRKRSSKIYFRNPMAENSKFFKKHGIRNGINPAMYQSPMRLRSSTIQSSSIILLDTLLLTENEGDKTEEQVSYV
smiles,measurement,setting,value
"CN(C)[C@@H]1Cc2ccccc2[C@@H](c2ccccc2)C1 (relative stereo) [(−)-trans-PAT, (1R,3S)-(−)-trans-1-phenyl-3-dimethylamino-1,2,3,4-tetrahydronaphthalene]","nH (Hill slope), 5-HT2A binding",human 5-HT2A receptor [1],1.1 ± 0.1
same,Ki,human 5-HT2A receptor [1]; [11],410 ± 38 nM
same,Ki,"human 5-HT2A receptor [1]; read-out: 5-HT2A receptor affinity Ki, as quoted in text from Table",~400 nM
same,"nH (Hill slope), 5-HT2B binding",human 5-HT2B receptor [2],1.0 ± 0.001
same,Ki,human 5-HT2B receptor [2]; [12],1200 nM
same,Ki,"human 5-HT2B receptor [2]; read-out: 5-HT2B receptor affinity Ki, as quoted in text from Table",~1200 nM
same,difference in affinity at 5-HT2A and 5-HT2C receptors,human 5-HT2C receptor [3],10 times
same,"nH (Hill slope), 5-HT2C binding",human 5-HT2C receptor [3],0.9 ± 0.1
same,potency (EC50) to activate 5-HT2C receptors greater than 5-HT2C affinity (Ki),human 5-HT2C receptor [4],about 2 times
same,"Emax, 5-HT2C activation",human 5-HT2C receptor [4]; CHO cells,464 ± 10.8 % basal control activity
same,"nH, 5-HT2C activation",human 5-HT2C receptor [4]; CHO cells,0.75 ± 0.13
same,"nH, inverse agonism at 5-HT2A receptors",human 5-HT2A receptor [5],0.85 ± 0.01
same,stimulation of PLC/[3H]-IP formation in cells expressing 5-HT2A receptors,human 5-HT2A receptor [5],does not stimulate
same,(maximal) inhibition of constitutive signaling at 5-HT2A receptors,human 5-HT2A receptor [5]; 10 μM,57.6 ± 5.66%
same,"pA2, 5-HT2A receptors",human 5-HT2A receptor [5]; vs serotonin,6.3
same,"nH, inverse agonism at 5-HT2B receptors",human 5-HT2B receptor [6],0.87 ± 0.23
same,stimulation of PLC/[3H]-IP formation in cells expressing 5-HT2B receptors,human 5-HT2B receptor [6],does not stimulate
same,(maximal) inhibition of constitutive signaling at 5-HT2B receptors,human 5-HT2B receptor [6]; 10 μM,35.3 ± 2.00%
same,"pA2, 5-HT2B receptors",human 5-HT2B receptor [6]; vs serotonin,5.8
same,maximal reduction of food intake,mice; at 10 mg/kg,about 75%
same,"ED50, reduction of food intake",mice,4.2 mg/kg
CN(C)[C@H]1Cc2ccccc2[C@@H](c2ccccc2)C1 [(+)-cis-PAT],"nH (Hill slope), 5-HT2A binding",human 5-HT2A receptor [1],0.9 ± 0.2
same,Ki,human 5-HT2A receptor [1]; [11],780 ± 2 nM
same,"nH (Hill slope), 5-HT2B binding",human 5-HT2B receptor [2],~1.0
same,Ki,human 5-HT2B receptor [2]; [12],~5000 nM
same,"nH (Hill slope), 5-HT2C binding",human 5-HT2C receptor [3],0.9 ± 0.1
CN(C)[C@@H]1Cc2ccccc2[C@H](c2ccccc2)C1 [(−)-cis-PAT],"nH (Hill slope), 5-HT2A binding",human 5-HT2A receptor [1],1.0 ± 0.1
same,Ki,human 5-HT2A receptor [1]; [11],1500 ± 2 nM
same,"nH (Hill slope), 5-HT2B binding",human 5-HT2B receptor [2],~1.0
same,Ki,human 5-HT2B receptor [2]; [12],~10000 nM
same,"nH (Hill slope), 5-HT2C binding",human 5-HT2C receptor [3],0.90 ± 0.04
COc1cccc([C@H](O)C2CCN(CCc3ccc(F)cc3)CC2)c1OC [M100907],5-HT2A selectivity over 5-HT2B receptors,5-HT2A,500 times
same,5-HT2A selectivity over 5-HT2C receptors,5-HT2A,15 times
"[3H]C([3H])(N1CCC(C(=O)c2ccc(F)cc2)CC1)C([3H])([3H])n1c(=O)[nH]c2ccccc2c1=O [[^3H]-Ketanserin, reference compound]","Bmax, 5-HT2A receptors",human 5-HT2A receptor [1]; saturation binding,1.73 ± 0.11 pmol/mg protein
C[C@H]1CNCCc2ccc(Cl)cc21 [lorcaserin],affinity for 5-HT2C receptors higher than at 5-HT2A receptors,5-HT2C receptors,about 7.5 times
same,affinity for human 5-HT2C over 5-HT2B receptors,5-HT2C receptors,about 12 times
same,Ki,5-HT2A receptors [7],~112 nM
same,Ki,5-HT2B receptors [8],~174 nM
same,"efficacy, activation of 5-HT2A receptors",5-HT2A receptors [9],75%
same,"efficacy, activation of 5-HT2B receptors",5-HT2B receptors [10],100%
same,maximal reduction of food intake,rats; at 24 mg/kg,about 60%
same,"ED50, reduction of food intake",rats,18 mg/kg
